Assay [1] has as its target T1, ER (Homo sapiens, UniProt P03372).
T1 construct: endogenous in cells; probably T47D or MCF-7
T1 sequence (P03372 1-595): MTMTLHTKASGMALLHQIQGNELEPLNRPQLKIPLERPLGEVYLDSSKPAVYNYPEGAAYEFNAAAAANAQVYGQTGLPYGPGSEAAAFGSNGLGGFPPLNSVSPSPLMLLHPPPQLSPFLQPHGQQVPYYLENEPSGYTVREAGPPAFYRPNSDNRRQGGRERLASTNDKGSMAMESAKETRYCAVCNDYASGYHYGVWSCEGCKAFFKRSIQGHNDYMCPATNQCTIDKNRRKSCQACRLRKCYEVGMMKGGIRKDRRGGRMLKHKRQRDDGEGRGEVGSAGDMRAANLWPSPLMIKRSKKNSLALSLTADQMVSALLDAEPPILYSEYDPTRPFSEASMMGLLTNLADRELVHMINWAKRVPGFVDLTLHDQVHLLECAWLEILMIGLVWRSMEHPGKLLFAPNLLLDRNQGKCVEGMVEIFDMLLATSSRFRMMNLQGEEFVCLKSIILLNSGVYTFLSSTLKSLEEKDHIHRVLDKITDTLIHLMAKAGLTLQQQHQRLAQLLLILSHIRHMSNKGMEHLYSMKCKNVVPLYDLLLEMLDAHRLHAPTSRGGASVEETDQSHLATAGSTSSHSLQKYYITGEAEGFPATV
Description: In-cell western blot analysis, relative ER percentage (compounds B1-B126). It counts as cell-based. The note with it: ER degradation, 16 hours, read-out: ICW DC50. The gist of the method:
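Readout was a two-colour infrared in-cell western of formaldehyde-fixed cells after 16 h compound exposure at 0.5% DMSO, with 40,000 or 10,000 cells/well plated the previous night. Relative ER percentage compares treated wells against untreated/DMSO-treated wells taken as 100%.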

A short description of assay [2]: Cell growth assay, WST-8 (compounds B1-B126). The class given is cell-based. The note with it: 96 h; T47D cell line, WST-8, 4 days; read-out: Cell growth inhibition in T47D cell line IC50. The gist of the method:
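Read-out is WST-8 absorbance at 450 nm (2.5 h, 37° C) as a fraction of vehicle control, from three separate repeats. Compound exposure lasted 4 days, starting one day after plating 1500 cells/well.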
On the technique in general: Tetrazolium dyes change colour on reduction, which living cells bring about.

Bounds are passed on as bounds.

What is called DC50 is the concentration at which degradation of the target reaches its halfway point. Broadly, the IC50 is the concentration needed to halve the response being measured. In the case of `C[C@@H]1Cc2c(ccc3[nH]ncc23)[C@@H](c2ccc(N3CCC(CN4CCN(c5ccc6c(c5)CN(C5CCC(=O)NC5=O)C6=O)CC4)CC3)cn2)N1CC(F)(F)F` (stereo partly drawn) [Compound B63, 3-(5-(4-((1-(6-((6S,8R)-8-methyl-7-(2,2,2-trifluoroethyl)-6,7,8,9-tetrahydro-3H-pyrazolo[4,3-f]isoquinolin-6-yl)pyridin-3-yl)piperidin-4-yl)methyl)piperazin-1-yl)-1-oxoisoindolin-2-yl)piperidine-2,6-dione], in assay [1], the DC50 was < 10 nM. In assay [2], the IC50 was < 1 nM.

Turning to `C[C@@H]1Cc2c(ccc3[nH]ncc23)[C@@H](c2ccc(N3CC4(CCN(C(=O)CN5CCC6(CC5)COc5c6ccc6c5CN(C5CCC(=O)NC5=O)C6=O)CC4)C3)cn2)N1CC(F)(F)F` (stereo partly drawn) [Compound B64, 3-(1′-(2-(2-(6-((6S,8R)-8-methyl-7-(2,2,2-trifluoroethyl)-6,7,8,9-tetrahydro-3H-pyrazolo[4,3-f]isoquinolin-6-yl)pyridin-3-yl)-2,7-diazaspiro[3.5]nonan-7-yl)-2-oxoethyl)-6-oxo-6,8-dihydro-2H,7H-spiro[furo[2,3-e]isoindole-3,4′-piperidin]-7-yl)piperidine-2,6-dione], the half-maximal degradation concentration (DC50) in assay [1] is < 10 nM. The IC50 in assay [2] was < 1 nM.

As to `COc1cc(N2CCC3(CCN(C(=O)CN4Cc5cc6c(cc5C4)C(=O)N(C4CCC(=O)NC4=O)C6=O)CC3)CC2)ccc1[C@@H]1c2ccc3[nH]ncc3c2C[C@@H](C)N1CC(F)F` (stereo partly drawn) [Compound B68, 6-(2-(9-(4-((6S,8R)-7-(2,2-difluoroethyl)-8-methyl-6,7,8,9-tetrahydro-3H-pyrazolo[4,3-f]isoquinolin-6-yl)-3-methoxyphenyl)-3,9-diazaspiro[5.5]undecan-3-yl)-2-oxoethyl)-2-(2,6-dioxopiperidin-3-yl)-6,7-dihydropyrrolo[3,4-f]isoindole-1,3(2H,5H)-dione], the half-maximal degradation concentration (DC50) in assay [1] is < 10 nM. The 50% inhibitory concentration (IC50) in assay [2] fell in the range of 1 to 10 nM.

Regarding `COc1cc(N2CCC3(CCN(C(=O)CN4Cc5cc6c(cc5C4)C(=O)N(C4CCC(=O)NC4=O)C6)CC3)CC2)ccc1[C@@H]1c2ccc3[nH]ncc3c2C[C@@H](C)N1CC(F)F` (stereo partly drawn) [Compound B69, 3-(6-(2-(9-(4-((6S,8R)-7-(2,2-difluoroethyl)-8-methyl-6,7,8,9-tetrahydro-3H-pyrazolo[4,3-f]isoquinolin-6-yl)-3-methoxyphenyl)-3,9-diazaspiro[5.5]undecan-3-yl)-2-oxoethyl)-1-oxo-3,5,6,7-tetrahydropyrrolo[3,4-f]isoindol-2(1H)-yl)piperidine-2,6-dione], in assay [1], the DC50 was < 10 nM. For the same molecule, the IC50 in assay [2] was < 1 nM.

As to `COc1c2c(cc3c1CN(C1CCC(=O)NC1=O)C3=O)CN(CC(=O)N1CCC3(CC1)CCN(c1cc(F)c([C@@H]4c5ccc6[nH]ncc6c5C[C@@H](C)N4CC(F)F)c(F)c1)CC3)C2` (stereo partly drawn) [Compound B72, 3-(6-(2-(9-(4-((6S,8R)-7-(2,2-difluoroethyl)-8-methyl-6,7,8,9-tetrahydro-3H-pyrazolo[4,3-f]isoquinolin-6-yl)-3,5-difluorophenyl)-3,9-diazaspiro[5.5]undecan-3-yl)-2-oxoethyl)-4-methoxy-1-oxo-3,5,6,7-tetrahydropyrrolo[3,4-f]isoindol-2(1H)-yl)piperidine-2,6-dione], the DC50 in assay [1] is < 10 nM. The half-inhibitory concentration (IC50) in assay [2] fell in the range of 1 to 10 nM.

As for `COc1c2c(cc3c1CN(C1CCC(=O)NC1=O)C3=O)CN(CC(=O)N1CC3(CCN(c4cc(F)c([C@@H]5c6ccc7[nH]ncc7c6C[C@@H](C)N5CC(F)F)c(F)c4)CC3)C1)C2` (stereo partly drawn) [Compound B73, 3-(6-(2-(7-(4-((6S,8R)-7-(2,2-difluoroethyl)-8-methyl-6,7,8,9-tetrahydro-3H-pyrazolo[4,3-f]isoquinolin-6-yl)-3,5-difluorophenyl)-2,7-diazaspiro[3.5]nonan-2-yl)-2-oxoethyl)-4-methoxy-1-oxo-3,5,6,7-tetrahydropyrrolo[3,4-f]isoindol-2(1H)-yl)piperidine-2,6-dione], in assay [1], the half-maximal degradation concentration (DC50) fell in the range of 10 to 100 nM. The IC50 in assay [2] was < 1 nM.

Turning to `C[C@@H]1Cc2c(ccc3[nH]ncc23)[C@@H](c2ccc(N3CCC4(CCN(CC(=O)N5Cc6cc7c(cc6C5)C(=O)N(C5CCC(=O)NC5=O)C7)CC4)CC3)cn2)N1CC(F)(F)F` (stereo partly drawn) [Compound B76, 3-(6-(2-(9-(6-((6S,8R)-8-methyl-7-(2,2,2-trifluoroethyl)-6,7,8,9-tetrahydro-3H-pyrazolo[4,3-f]isoquinolin-6-yl)pyridin-3-yl)-3,9-diazaspiro[5.5]undecan-3-yl)acetyl)-1-oxo-3,5,6,7-tetrahydropyrrolo[3,4-f]isoindol-2(1H)-yl)piperidine-2,6-dione], the half-maximal degradation concentration (DC50) in assay [1] was < 10 nM. Besides, the IC50 in assay [2] was in the range of 1 to 10 nM.

For the molecule `C[C@@H]1Cc2c(ccc3[nH]ncc23)[C@@H](c2ccc(N3CCC4(CC3)CC(CN3CCN5c6cc7c(cc6OC[C@@H]5C3)C(=O)N(C3CCC(=O)NC3=O)C7)C4)cn2)N1CC(F)(F)F` (stereo partly drawn) [Compound B77, 3-((S)-3-((7-(6-((6S,8R)-8-methyl-7-(2,2,2-trifluoroethyl)-6,7,8,9-tetrahydro-3H-pyrazolo[4,3-f]isoquinolin-6-yl)pyridin-3-yl)-7-azaspiro[3.5]nonan-2-yl)methyl)-8-oxo-1,2,3,4,4a,5,8,10-octahydro-9H-pyrazino[1′,2′:4,5][1,4]oxazino[2,3-f]isoindol-9-yl)piperidine-2,6-dione], in assay [1], the 50% degradation concentration (DC50) is 10 to 100 nM. Further, the IC50 in assay [2] is 1 to 10 nM.

Take `C[C@@H]1Cc2c(ccc3[nH]ncc23)[C@@H](c2ccc(N3CCC4(CC3)CN(C(=O)CN3CCC5(CC3)COc3c5ccc5c3CN(C3CCC(=O)NC3=O)C5=O)C4)cn2)N1CC(F)(F)F` (stereo partly drawn) [Compound B78, 3-(1′-(2-(7-(6-((6S,8R)-8-methyl-7-(2,2,2-trifluoroethyl)-6,7,8,9-tetrahydro-3H-pyrazolo[4,3-f]isoquinolin-6-yl)pyridin-3-yl)-2,7-diazaspiro[3.5]nonan-2-yl)-2-oxoethyl)-6-oxo-6,8-dihydro-2H,7H-spiro[furo[2,3-e]isoindole-3,4′-piperidin]-7-yl)piperidine-2,6-dione]: in assay [1], the half-maximal degradation concentration (DC50) is < 10 nM. In addition, the IC50 in assay [2] was < 1 nM.

As for `COc1cc(N2CCC3(CC2)CC(CN2CCN4c5cc6c(cc5OC[C@@H]4C2)C(=O)N(C2CCC(=O)NC2=O)C6)CO3)ccc1[C@@H]1c2ccc3[nH]ncc3c2C[C@@H](C)N1CC(F)F` (stereo partly drawn) [Compound B79, 3-((4aS)-3-((8-(4-((6S,8R)-7-(2,2-difluoroethyl)-8-methyl-6,7,8,9-tetrahydro-3H-pyrazolo[4,3-f]isoquinolin-6-yl)-3-methoxyphenyl)-1-oxa-8-azaspiro[4.5]decan-3-yl)methyl)-8-oxo-1,2,3,4,4a,5,8,10-octahydro-9H-pyrazino[1′,2′:4,5][1,4]oxazino[2,3-f]isoindol-9-yl)piperidine-2,6-dione], in assay [1], the 50% degradation concentration (DC50) was < 10 nM. Moreover, in assay [2], the IC50 is < 1 nM.

Consider `COc1cc(N2CCC3(CC2)CC(CN2CCN4c5ccc6c(c5OC[C@H]4C2)CN(C2CCC(=O)NC2=O)C6=O)CO3)ccc1[C@@H]1c2ccc3[nH]ncc3c2C[C@@H](C)N1CC(F)F` (stereo partly drawn) [Compound B80, 3-((5aR)-7-((8-(4-((6S,8R)-7-(2,2-difluoroethyl)-8-methyl-6,7,8,9-tetrahydro-3H-pyrazolo[4,3-f]isoquinolin-6-yl)-3-mcthoxyphenyl)-1-oxa-8-azaspiro[4.5]decan-3-yl)methyl)-1-oxo-1,3,5,5a,6,7,8,9-octahydro-2H-pyrazino[1′,2′:4,5][1,4]oxazino[2,3-e]isoindol-2-yl)piperidine-2,6-dione], for which the half-maximal degradation concentration (DC50) in assay [1] was < 10 nM. In addition, the IC50 in assay [2] is < 1 nM.

For the origin of these results see patent US20260256925A1, “INDAZOLE DERIVATIVES AS ESTROGEN RECEPTOR DEGRADERS” (REGENTS OF THE UNIVERSITY OF MICHIGAN, priority 2022, published 2026).
